PubChem BioAssay (NCI)
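Step 1: Grow cells in 96-well plates. Step 2: Expose to compound for 48 hours at 5 concentrations. Step 3: Interpolate endpoints linearly; if unreached, use highest concentration. TGI: total growth inhibition.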

Key:
Test in all cases: NCI-60 cell line screen, 48 h
786-0 renal = test system: 786-0 renal
A549 NSCLC = test system: A549 NSCLC
ACHN renal = test system: ACHN renal
BT-549 breast = test system: BT-549 breast
CAKI-1 renal = test system: CAKI-1 renal
CCRF-CEM leukemia = test system: CCRF-CEM leukemia
COLO 205 colon = test system: COLO 205 colon
DU-145 prostate = test system: DU-145 prostate
EKVX NSCLC = test system: EKVX NSCLC
HCC-2998 colon = test system: HCC-2998 colon
HCT-116 colon = test system: HCT-116 colon
HCT-15 colon = test system: HCT-15 colon
HL-60(TB) leukemia = test system: HL-60(TB) leukemia
HOP-62 NSCLC = test system: HOP-62 NSCLC
HOP-92 NSCLC = test system: HOP-92 NSCLC
HS 578T breast = test system: HS 578T breast
HT29 colon = test system: HT29 colon
IGROV1 ovarian = test system: IGROV1 ovarian
K-562 leukemia = test system: K-562 leukemia
KM12 colon = test system: KM12 colon
LOX IMVI melanoma = test system: LOX IMVI melanoma
M14 melanoma = test system: M14 melanoma
MALME-3M melanoma = test system: MALME-3M melanoma
MDA-MB-231 breast = test system: MDA-MB-231 breast
MDA-MB-435 = test system: MDA-MB-435
MDA-N = test system: MDA-N
MOLT-4 leukemia = test system: MOLT-4 leukemia
NCI-H226 lung = test system: NCI-H226 lung
NCI-H23 lung = test system: NCI-H23 lung
NCI-H460 lung = test system: NCI-H460 lung
NCI-H522 lung = test system: NCI-H522 lung
NCI/ADR-RES ovarian = test system: NCI/ADR-RES ovarian
OVCAR-3 ovarian = test system: OVCAR-3 ovarian
OVCAR-4 ovarian = test system: OVCAR-4 ovarian
OVCAR-5 ovarian = test system: OVCAR-5 ovarian
OVCAR-8 ovarian = test system: OVCAR-8 ovarian
PC-3 prostate = test system: PC-3 prostate
RPMI-8226 leukemia = test system: RPMI-8226 leukemia
RXF 393 renal = test system: RXF 393 renal
SF-268 CNS = test system: SF-268 CNS
SF-295 CNS = test system: SF-295 CNS
SF-539 CNS = test system: SF-539 CNS
SK-MEL-2 melanoma = test system: SK-MEL-2 melanoma
SK-MEL-28 melanoma = test system: SK-MEL-28 melanoma
SK-MEL-5 melanoma = test system: SK-MEL-5 melanoma
SK-OV-3 ovarian = test system: SK-OV-3 ovarian
SN12C renal = test system: SN12C renal
SNB-19 CNS = test system: SNB-19 CNS
SNB-75 CNS = test system: SNB-75 CNS
SR leukemia = test system: SR leukemia
SW-620 colon = test system: SW-620 colon
T-47D breast = test system: T-47D breast
U251 CNS = test system: U251 CNS
UACC-257 melanoma = test system: UACC-257 melanoma
UACC-62 melanoma = test system: UACC-62 melanoma
UO-31 renal = test system: UO-31 renal

Measured: TGI

CC(C)CC(=O)NC(Nc1ccc(S(=O)(=O)Nc2ncccn2)cc1)(C(F)(F)F)C(F)(F)F
> 100 µM: all assays above
